# Experimental data published in patent US6410581B1, “Disubstituted biphenyloxazolines” (Bayer Aktiengesellschaft, priority 1997, dated 2002).
# Experiment: log p, n-octanol/water partition coefficient by reverse phase HPLC (H2O/CH3CN)
# Assay type: physicochemical
# Details: n-octanol/water, pH 2.3
row,chromatographic logP,Structure (SMILES)
1,4.16,CCOC(=O)Oc1ccc(-c2ccccc2)cc1Cl [(2-Chloro-4-phenyl-phenyl) ethyl carbonate]
2,4.04,CCOC(=O)Oc1ccc(-c2ccccc2)cc1C [(2-Methyl-4-phenyl-phenyl) ethyl carbonate]
3,4.76,CCCc1cc(-c2ccccc2)ccc1OC(=O)OCC [(4-phenyl-2-propyl-phenyl) ethyl carbonate]

row,Structure (SMILES),chromatographic logP
1,CCc1cc(-c2ccccc2)ccc1OC(C)=O [4-acetoxy-3-ethyl-biphenyl],3.92
2,CCCc1cc(-c2ccccc2)ccc1OC(C)=O [4-acetoxy-3-propyl-biphenyl],4.32

# Same assay, conditions: n-octanol/water, pH 7.5
row,chromatographic logP,Structure (SMILES)
1,4.65,"CCOC(=O)Oc1c(Cl)cc(-c2ccccc2)cc1Cl [(2,6-dichloro-4-phenyl-phenyl) ethyl carbonate]"

# Same assay, conditions: pH 7.5
row,Structure (SMILES),log p
1,CCC(C)Oc1ccc(-c2ccc(C3COC(c4c(F)cccc4F)=N3)cc2)cc1C (centres unmarked) [Example I-7],log p*: 5.60 (pH = 7.5)
2,CCCc1cc(-c2ccc(C3COC(c4c(F)cccc4F)=N3)cc2)ccc1OC(C)CC (centres unmarked) [Example I-10],log p: 6.33 (pH = 7.5)
3,CCCc1cc(-c2ccc(C3COC(c4ccccc4Cl)=N3)cc2)ccc1OCC(C)C (centres unmarked) [Example I-37],log p: 6.95 (pH 7.5)
4,CCCc1cc(-c2ccc(C3COC(c4ccccc4Cl)=N3)cc2)ccc1OCC(C)O (centres unmarked) [Example I-39],log p: 4.47 (pH 7.5)
5,Cc1cc(-c2ccc(C3COC(c4c(F)cccc4F)=N3)cc2)cc(C)c1OC(C)C (centres unmarked) [Example I-44],log p: 5.23 (pH 7.5)
6,C=CCc1cc(-c2ccc(C3COC(c4c(F)cccc4F)=N3)cc2)ccc1OC(C)CC (centres unmarked) [Example I-59],log p: 5.95 (pH 7.5)
7,CCCc1cc(-c2ccc(C3COC(c4c(F)cccc4F)=N3)cc2)ccc1OCc1ccc(C(C)(C)C)cc1 (centres unmarked) [Example I-60],log p: 7.14 (pH 7.5)
8,CC(C)Oc1ccc(-c2ccc(C3COC(c4c(F)cccc4Cl)=N3)cc2)cc1Cl (centres unmarked) [Example I-71],log p: 5.25 (pH 7.5)

# Results, then the molecule that gave them:
row,log p,Structure (SMILES)
1,log p: 7.28 (pH = 7.5),CCCc1cc(-c2ccc(C3COC(c4ccccc4C)=N3)cc2)ccc1OC(C)CC (centres unmarked) [Example I-9]
2,log p: 5.56 (pH = 7.5),Cc1cc(-c2ccc(C3COC(c4ccccc4Cl)=N3)cc2)ccc1OC(C)C (centres unmarked) [Example I-12]
3,log p: 5.63 (pH = 7.5),Cc1cc(-c2ccc(C3COC(c4ccccc4Br)=N3)cc2)ccc1OC(C)C (centres unmarked) [Example I-14]
4,log p: 6.12 (pH = 7.5),CCC(C)Oc1ccc(-c2ccc(C3COC(c4ccccc4Br)=N3)cc2)cc1C (centres unmarked) [Example I-16]
5,log p (pH 7.5): 5.04,CC(C)Oc1ccc(-c2ccc(C3COC(c4ccccc4F)=N3)cc2)cc1Cl (centres unmarked) [Example I-32]
6,log p (pH 7.5): 6.03,CC(C)COc1ccc(-c2ccc(C3COC(c4ccccc4Cl)=N3)cc2)cc1Cl (centres unmarked) [Example I-34]
7,log p: 6.35 (pH 7.5),CCCc1cc(-c2ccc(C3COC(c4ccccc4Cl)=N3)cc2)ccc1OC(C)C (centres unmarked) [Example I-36]
8,log p: 6.40 (pH 7.5),CCCc1cc(-c2ccc(C3COC(c4ccccc4Br)=N3)cc2)ccc1OC(C)C (centres unmarked) [Example I-40]
9,log p: 6.78 (pH 7.5),CCCc1cc(-c2ccc(C3COC(c4ccccc4C)=N3)cc2)ccc1OC(C)C (centres unmarked) [Example I-52]
10,log p: 5.64 (pH 7.5),C=CCOc1ccc(-c2ccc(C3COC(c4ccccc4C)=N3)cc2)cc1C (centres unmarked) [Example I-55]
11,log p: 6.59 (pH 7.5),CCCc1cc(-c2ccc(C3COC(c4ccccc4I)=N3)cc2)ccc1OC(C)C (centres unmarked) [Example I-57]
12,log p: 5.54 (pH 7.5),CCc1cc(-c2ccc(C3COC(c4c(F)cccc4F)=N3)cc2)ccc1OC(C)C (centres unmarked) [Example I-63]
13,log p: 4.48 (pH 7.5),CCCc1cc(-c2ccc(C3COC(c4ccccc4C)=N3)cc2)ccc1OCC(C)C (centres unmarked) [Example I-64]
14,log p: 5.81 (pH 7.5),Cc1cc(-c2ccc(C3COC(c4ccccc4I)=N3)cc2)ccc1OC(C)C (centres unmarked) [Example I-67]
15,log p: 6.02 (pH 7.5),Cc1cc(-c2ccc(C3COC(c4ccccc4C)=N3)cc2)ccc1OC(C)C (centres unmarked) [Example I-70]
